From ChEMBL document CHEMBL3885861, “Open TG-GATES”

Species on record: Rattus norvegicus
Test: Open TG-GATES - Regimen: Daily Repeat
Type: toxicity, organism-based, Sprague-Dawley
Parameters: regimen Daily Repeat, gender Male, age 6 weeks
Details: in vivo, po, route gavage; for APTT / Bas / Eos / Fbg / Hb / Ht / Lym / MCH / MCHC / MCV / Mono / Neu / PT / Plat / RBC / Ret / WBC: tissue Blood; for KIDNEY_L / KIDNEY_R / KIDNEY_TOTAL: tissue Kidney; for LIVER: tissue Liver; for A/G / ALP / ALT / AST / BUN / CRE / Ca / Cl / DBIL / GLC / IP / K / LDH / Na / PL / RALB / TBIL / TC / TG / TP / gamma-GTP: tissue Plasma
[1] = 300 mg/kg, 72 h, dose level Middle, time 3 day
[2] = 300 mg/kg, […], dose level Middle, time 7 day
[3] = 300 mg/kg, […], dose level Middle, time 14 day
[4] = 300 mg/kg, […], dose level Middle, time 28 day
[5] = 1000 mg/kg, 72 h, dose level High, time 3 day
[6] = 1000 mg/kg, […], dose level High, time 7 day
[7] = 1000 mg/kg, […], dose level High, time 14 day
[8] = 1000 mg/kg, […], dose level High, time 28 day

## O=C(OC[C@H]1O[C@@H](OC(=O)c2cc(O)c(O)c(OC(=O)c3cc(O)c(O)c(O)c3)c2)[C@H](OC(=O)c2cc(O)c(O)c(OC(=O)c3cc(O)c(O)c(O)c3)c2)[C@@H](OC(=O)c2cc(O)c(O)c(OC(=O)c3cc(O)c(O)c(O)c3)c2)[C@@H]1OC(=O)c1cc(O)c(O)c(OC(=O)c2cc(O)c(O)c(O)c2)c1)c1cc(O)c(O)c(OC(=O)c2cc(O)c(O)c(O)c2)c1 [TANNIC ACID]
[1]
  TERMINAL_BW: 215.8 g
  APTT: 16.1 s
  Bas: 0%
  Eos: 1%
  Fbg: 240.8 mg/dL
  Hb: 13.1 g/dL
  Ht: 39.3%
  Lym: 76.8%
  MCH: 21.6 pg
  MCHC: 33.3%
  MCV: 64.9 fL
  Mono: 10%
  Neu: 12.4%
  PT: 11.5 s
  Plat: 118.8 x10_4/uL
  RBC: 606.2 x10_4/ul
  Ret: 7.7%
  WBC: 77.2 x10_2/uL
  KIDNEY_L: 1 g
  KIDNEY_R: 1 g
  KIDNEY_TOTAL: 1.9 g
  LIVER: 10.9 g
  A/G: 2.1
  ALP: 808.4 IU/L
  ALT: 35 IU/L
  AST: 62.8 IU/L
  BUN: 17.8 mg/dL
  CRE: 0.5 mg/dL
  Ca: 10.9 mg/dL
  Cl: 103.4 meq/L
  DBIL: 0.004 mg/dL
  GLC: 207.6 mg/dL
  IP: 8.7 mg/dL
  K: 4.6 meq/L
  LDH: 83 IU/L
  Na: 139 meq/L
  PL: 159.2 mg/dL
  RALB: 3.8 g/dL
  TBIL: 0.3 mg/dL
  TC: 84.6 mg/dL
  TG: 109.2 mg/dL
  TP: 5.6 g/dL
  gamma-GTP: 0.6 IU/L
[2]
  TERMINAL_BW: 250.4 g
  APTT: 17.1 s
  Bas: 0%
  Eos: 1.4%
  Fbg: 226 mg/dL
  Hb: 13.4 g/dL
  Ht: 40.6%
  Lym: 81.2%
  MCH: 21.3 pg
  MCHC: 33.1%
  MCV: 64.2 fL
  Mono: 4.8%
  Neu: 12.8%
  PT: 10.9 s
  Plat: 123.2 x10_4/uL
  RBC: 631.8 x10_4/ul
  Ret: 6.5%
  WBC: 103.7 x10_2/uL
  KIDNEY_L: 1 g
  KIDNEY_R: 1 g
  KIDNEY_TOTAL: 2.1 g
  LIVER: 12.2 g
  A/G: 1.6
  ALP: 926.8 IU/L
  ALT: 35.8 IU/L
  AST: 62.2 IU/L
  BUN: 19.4 mg/dL
  CRE: 0.6 mg/dL
  Ca: 10.8 mg/dL
  Cl: 103 meq/L
  DBIL: 0.016 mg/dL
  GLC: 205.6 mg/dL
  IP: 7.9 mg/dL
  K: 4.5 meq/L
  LDH: 98.6 IU/L
  Na: 137.4 meq/L
  PL: 154.6 mg/dL
  RALB: 3.7 g/dL
  TBIL: 0.4 mg/dL
  TC: 81.2 mg/dL
  TG: 119.6 mg/dL
  TP: 6.1 g/dL
  gamma-GTP: 1.6 IU/L
[3]
  TERMINAL_BW: 315.8 g
  APTT: 16.7 s
  Bas: 0%
  Eos: 1.2%
  Fbg: 261.2 mg/dL
  Hb: 13.7 g/dL
  Ht: 41.1%
  Lym: 75.4%
  MCH: 20.7 pg
  MCHC: 33.4%
  MCV: 62.1 fL
  Mono: 8%
  Neu: 15.4%
  PT: 11.5 s
  Plat: 123.3 x10_4/uL
  RBC: 662.6 x10_4/ul
  Ret: 5.5%
  WBC: 101.9 x10_2/uL
  KIDNEY_L: 1.4 g
  KIDNEY_R: 1.3 g
  KIDNEY_TOTAL: 2.7 g
  LIVER: 14.7 g
  A/G: 1.7
  ALP: 702.2 IU/L
  ALT: 32.4 IU/L
  AST: 62.8 IU/L
  BUN: 20 mg/dL
  CRE: 0.6 mg/dL
  Ca: 10.7 mg/dL
  Cl: 103.4 meq/L
  DBIL: 0.008 mg/dL
  GLC: 202.4 mg/dL
  IP: 8.3 mg/dL
  K: 4.4 meq/L
  LDH: 83.4 IU/L
  Na: 139.8 meq/L
  PL: 151.6 mg/dL
  RALB: 3.8 g/dL
  TBIL: 0.3 mg/dL
  TC: 79.6 mg/dL
  TG: 116.8 mg/dL
  TP: 6 g/dL
  gamma-GTP: 1.4 IU/L
[4]
  TERMINAL_BW: 397.8 g
  APTT: 16.6 s
  Bas: 0%
  Eos: 1.8%
  Fbg: 232.8 mg/dL
  Hb: 15 g/dL
  Ht: 45.2%
  Lym: 77.8%
  MCH: 19.6 pg
  MCHC: 33.2%
  MCV: 59.1 fL
  Mono: 6.2%
  Neu: 14.5%
  PT: 11.9 s
  Plat: 113.3 x10_4/uL
  RBC: 765.2 x10_4/ul
  Ret: 3%
  WBC: 112.2 x10_2/uL
  KIDNEY_L: 1.4 g
  KIDNEY_R: 1.4 g
  KIDNEY_TOTAL: 2.9 g
  LIVER: 17 g
  A/G: 1.8
  ALP: 534 IU/L
  ALT: 32.2 IU/L
  AST: 55.5 IU/L
  BUN: 20 mg/dL
  CRE: 0.6 mg/dL
  Ca: 11 mg/dL
  Cl: 105.8 meq/L
  DBIL: 0.01 mg/dL
  GLC: 201.8 mg/dL
  IP: 7.9 mg/dL
  K: 4.5 meq/L
  LDH: 83.2 IU/L
  Na: 139.5 meq/L
  PL: 141.8 mg/dL
  RALB: 4 g/dL
  TBIL: 0.3 mg/dL
  TC: 70.2 mg/dL
  TG: 133.8 mg/dL
  TP: 6.2 g/dL
  gamma-GTP: 0.5 IU/L
[5]
  TERMINAL_BW: 216.2 g
  APTT: 17 s
  Bas: 0%
  Eos: 1.4%
  Fbg: 234.6 mg/dL
  Hb: 13.2 g/dL
  Ht: 39.6%
  Lym: 67.8%
  MCH: 21.3 pg
  MCHC: 33.3%
  MCV: 63.8 fL
  Mono: 10.2%
  Neu: 20.6%
  PT: 11.6 s
  Plat: 110.8 x10_4/uL
  RBC: 621.4 x10_4/ul
  Ret: 7.9%
  WBC: 91.3 x10_2/uL
  KIDNEY_L: 1 g
  KIDNEY_R: 1 g
  KIDNEY_TOTAL: 1.9 g
  LIVER: 10.6 g
  A/G: 2
  ALP: 818.6 IU/L
  ALT: 42.6 IU/L
  AST: 65.6 IU/L
  BUN: 17.6 mg/dL
  CRE: 0.4 mg/dL
  Ca: 10.9 mg/dL
  Cl: 104.2 meq/L
  DBIL: 0.004 mg/dL
  GLC: 204.4 mg/dL
  IP: 7.9 mg/dL
  K: 4.6 meq/L
  LDH: 81.6 IU/L
  Na: 139.4 meq/L
  PL: 152.8 mg/dL
  RALB: 3.6 g/dL
  TBIL: 0.4 mg/dL
  TC: 85 mg/dL
  TG: 88.6 mg/dL
  TP: 5.5 g/dL
  gamma-GTP: 1.2 IU/L
[6]
  TERMINAL_BW: 253.1 g
  APTT: 17.3 s
  Bas: 0%
  Eos: 1%
  Fbg: 227.4 mg/dL
  Hb: 13.3 g/dL
  Ht: 40%
  Lym: 72%
  MCH: 21.8 pg
  MCHC: 33.3%
  MCV: 65.5 fL
  Mono: 6%
  Neu: 21.2%
  PT: 11.3 s
  Plat: 121.1 x10_4/uL
  RBC: 610.4 x10_4/ul
  Ret: 7.4%
  WBC: 103.9 x10_2/uL
  KIDNEY_L: 1.1 g
  KIDNEY_R: 1.1 g
  KIDNEY_TOTAL: 2.2 g
  LIVER: 12.1 g
  A/G: 1.7
  ALP: 897.4 IU/L
  ALT: 34.2 IU/L
  AST: 60 IU/L
  BUN: 16.2 mg/dL
  CRE: 0.5 mg/dL
  Ca: 10.8 mg/dL
  Cl: 103.2 meq/L
  DBIL: 0.012 mg/dL
  GLC: 200.4 mg/dL
  IP: 8 mg/dL
  K: 4.6 meq/L
  LDH: 93.4 IU/L
  Na: 136.6 meq/L
  PL: 125.4 mg/dL
  RALB: 3.7 g/dL
  TBIL: 0.4 mg/dL
  TC: 62.6 mg/dL
  TG: 91 mg/dL
  TP: 5.9 g/dL
  gamma-GTP: 1 IU/L
[7]
  TERMINAL_BW: 291.2 g
  APTT: 16.4 s
  Bas: 0%
  Eos: 1%
  Fbg: 241.2 mg/dL
  Hb: 14.5 g/dL
  Ht: 43.2%
  Lym: 74.8%
  MCH: 20.5 pg
  MCHC: 33.4%
  MCV: 61.3 fL
  Mono: 9.4%
  Neu: 14.8%
  PT: 11.5 s
  Plat: 121.1 x10_4/uL
  RBC: 705.6 x10_4/ul
  Ret: 4.7%
  WBC: 116.2 x10_2/uL
  KIDNEY_L: 1.1 g
  KIDNEY_R: 1.1 g
  KIDNEY_TOTAL: 2.3 g
  LIVER: 12.9 g
  A/G: 1.9
  ALP: 720.4 IU/L
  ALT: 35.4 IU/L
  AST: 58.6 IU/L
  BUN: 17.8 mg/dL
  CRE: 0.5 mg/dL
  Ca: 10.7 mg/dL
  Cl: 104.6 meq/L
  DBIL: 0.024 mg/dL
  GLC: 204.2 mg/dL
  IP: 8.3 mg/dL
  K: 4.6 meq/L
  LDH: 87.6 IU/L
  Na: 140.4 meq/L
  PL: 145.2 mg/dL
  RALB: 3.8 g/dL
  TBIL: 0.4 mg/dL
  TC: 70.4 mg/dL
  TG: 115.8 mg/dL
  TP: 5.8 g/dL
  gamma-GTP: 0.8 IU/L
[8]
  TERMINAL_BW: 390.8 g
  APTT: 16 s
  Bas: 0%
  Eos: 1.6%
  Fbg: 225.2 mg/dL
  Hb: 14.4 g/dL
  Ht: 43%
  Lym: 78.2%
  MCH: 19.4 pg
  MCHC: 33.5%
  MCV: 57.9 fL
  Mono: 7.6%
  Neu: 12.6%
  PT: 11.6 s
  Plat: 118.3 x10_4/uL
  RBC: 741.4 x10_4/ul
  Ret: 3.1%
  WBC: 130.6 x10_2/uL
  KIDNEY_L: 1.4 g
  KIDNEY_R: 1.4 g
  KIDNEY_TOTAL: 2.8 g
  LIVER: 16.8 g
  A/G: 1.8
  ALP: 573 IU/L
  ALT: 31.6 IU/L
  AST: 54 IU/L
  BUN: 20.4 mg/dL
  CRE: 0.5 mg/dL
  Ca: 10.7 mg/dL
  Cl: 105.8 meq/L
  DBIL: 0.006 mg/dL
  GLC: 199.2 mg/dL
  IP: 7.8 mg/dL
  K: 4.5 meq/L
  LDH: 87.8 IU/L
  Na: 139 meq/L
  PL: 152.6 mg/dL
  RALB: 3.8 g/dL
  TBIL: 0.4 mg/dL
  TC: 73.4 mg/dL
  TG: 139.4 mg/dL
  TP: 6 g/dL
  gamma-GTP: 1 IU/L
